According to patent publication US5298494A, “Monosaccharides having anti-proliferation and anti-inflammatory activity, compositions and uses thereof” (Greenwich Pharmaceuticals Incorporated, priority 1993, dated 1994):
“And” between values parts separate entries of the source, which are not always exact repeats. Equal entries are not always repeated. Where two headings read alike, the source gives them in different places.

System: T lymphocytes (normal mouse spleen cells) stimulated with ConA
Test: Mouse Spleen Cell ConA Blastogenesis Assay
Format: cell-based, mouse (C57Bl/6)
Conditions: for inhibition at 0.01 µg/mL / inhibition at 0.001 µg/mL / inhibition at 0.1 µg/mL / inhibition at 1 µg/mL / inhibition at 2.5 µg/mL / inhibition at 10 µg/mL / inhibition at 25 µg/mL / inhibition at 100 µg/mL / inhibition at 300 µg/mL / inhibition at 750 µg/mL: Mus musculus, T-lymphocyte; for inhibition at 0.01 µg/mL: 0.01 ug/ml, read-out: % Change from Control (Table II); for inhibition at 0.001 µg/mL / inhibition at 0.1 µg/mL / inhibition at 1 µg/mL / inhibition at 2.5 µg/mL / inhibition at 10 µg/mL / inhibition at 25 µg/mL / inhibition at 100 µg/mL / inhibition at 300 µg/mL / inhibition at 750 µg/mL: read-out: % change from control, ConA blastogenic response; for strong antiproliferative effect on ConA blastogenic response: concentration not given
From the text: It is well known that several plant lectins, when cultured in vitro with lymphocytes, stimulate cellular activation and proliferation. Concanavolin, (ConA) selectively stimulates the blastogenic response of T lymphocytes.
Six to 8 week old male C57Bl/6 mice were purchased from Harlan Sprague Dawley (Indianapolis, Ind.).
Spleens were removed and were homogenized to obtain a single cell suspension. Erythrocytes were lysed by hypotonic shock. Upon determination of the viability and concentration of the lymphoid cells, they were adjusted to 4×10^6 cells/ml in culture medium (RPMI-1640) supplemented with 10% fetal bovine serum; 100 ug/ml streptomycin; 100 U/ml penicillin, 0.2M hepes buffer; 5×10^-5 M 2-mercaptoethanol and 2 mM glutamine). seeded into microtiter plate wells at 2×10^5 cells/0.050 ml/well. To these cultures were added various doses of experimental compounds and ConA at a final concentration of 4 or 1 ug/ml. Control cultures consisted of cells, ConA and culture medium containing the vehicle, DMSO only. […] For the testing of the methyl 1,3-O-isopropylidene-6-O-n-heptyl-α-D-fructofuranoside compound indomethacin and NDGA were used as controls. All cultures were run in triplicate.
Solutions of compounds of the invention in DMSO were prepared and dilutions were made in culture medium. Assay concentrations were either: 1, 2.5, 10, 25, 100, 300 and 750 ug/ml or 0.001, 0.01, 0.1, 1, 2.5, 10, 25 and 100 ug/ml.
Cultures were incubated for 3 days at 37° C. in a humidified atmosphere of 5% of CO2 in air. For the last 18 hours of culture, 1 uCi of ^3 H-thymidine was also incubated in each well. The cells were precipitated by a multi-channel harvester. The amount of ^3 H-thymidine incorporated by the cultures, as a measure of cell proliferation, was measured in a liquid scintillation counter. The amount of radioactive incorporation is proportional to the amount of cellular proliferation in individual wells. The students T test was used to determine the significance of the difference between experimental and control values.

[1] = ConA 1 ug/ml, compound 0.001 ug/ml
[2] = ConA 1 ug/ml, compound 0.1 ug/ml
[3] = ConA 1 ug/ml, compound 2.5 ug/ml
[4] = ConA 1 ug/ml, compound 10 ug/ml
[5] = ConA 1 ug/ml, compound 25 ug/ml
[6] = ConA 1 ug/ml, compound 100 ug/ml
[7] = ConA 4 ug/ml, compound 0.001 ug/ml
[8] = ConA 4 ug/ml, compound 0.1 ug/ml
[9] = ConA 4 ug/ml, compound 2.5 ug/ml
[10] = ConA 4 ug/ml, compound 10 ug/ml
[11] = ConA 4 ug/ml, compound 25 ug/ml
[12] = ConA 4 ug/ml, compound 100 ug/ml
[13] = ConA 1 ug/ml, compound 300 ug/ml
[14] = ConA 1 ug/ml, compound 750 ug/ml
[15] = ConA 4 ug/ml, compound 300 ug/ml
[16] = ConA 4 ug/ml, compound 750 ug/ml

SMILES: Cc1cn([C@H]2C[C@H](N=[N+]=[N-])[C@@H](CO)O2)c(=O)[nH]c1=O [AZT, reference compound]
- Blastogenic response of normal spleen cells to Con-A [1]: 47.1 ± 4.5 × 10^-3 cpm
- Blastogenic response of normal spleen cells to Con-A (ConA 1 ug/ml, compound 0.01 ug/ml): 36.7 ± 3.1 × 10^-3 cpm
- Blastogenic response of normal spleen cells to Con-A [2]: 9.1 ± 5.8 × 10^-3 cpm
- % change from control, ConA blastogenic response (ConA 1 ug/ml, compound 1 ug/ml): -99% and -96%
- Blastogenic response of normal spleen cells to Con-A (ConA 1 ug/ml, compound 1 ug/ml): 1.7 ± 0.1 × 10^-3 cpm
- % change from control, ConA blastogenic response [3]: -98%
- Blastogenic response of normal spleen cells to Con-A [3]: 0.7 ± 0.3 × 10^-3 cpm
- % change from control, ConA blastogenic response [4]: -100% and -99%
- Blastogenic response of normal spleen cells to Con-A [4]: 0.5 ± 0.1 × 10^-3 cpm
- % change from control, ConA blastogenic response [5]: -100% and -99%
- Blastogenic response of normal spleen cells to Con-A [5]: 0.5 ± 0.2 × 10^-3 cpm
- % change from control, ConA blastogenic response [6]: -100% and -99%
- Blastogenic response of normal spleen cells to Con-A [6]: 0.3 ± 0.0 × 10^-3 cpm
- Blastogenic response of normal spleen cells to Con-A [7]: 163.7 ± 8.0 × 10^-3 cpm
- Blastogenic response of normal spleen cells to Con-A (ConA 4 ug/ml, compound 0.01 ug/ml): 158.1 × 10^-3 cpm
- Blastogenic response of normal spleen cells to Con-A [8]: 24.5 ± 3.0 × 10^-3 cpm
- % change from control, ConA blastogenic response (ConA 4 ug/ml, compound 1 ug/ml): -99% and -97%
- Blastogenic response of normal spleen cells to Con-A (ConA 4 ug/ml, compound 1 ug/ml): 4.0 ± 1.5 × 10^-3 cpm
- % change from control, ConA blastogenic response [9]: -100% and -99%
- Blastogenic response of normal spleen cells to Con-A [9]: 1.9 ± 0.4 × 10^-3 cpm
- % change from control, ConA blastogenic response [10]: -100% and -99%
- Blastogenic response of normal spleen cells to Con-A [10]: 1.4 ± 0.4 × 10^-3 cpm
- Blastogenic response of normal spleen cells to Con-A [11]: 1.3 ± 0.5 × 10^-3 cpm
- % change from control, ConA blastogenic response [12]: -99% and -100%
- Blastogenic response of normal spleen cells to Con-A [12]: 0.6 ± 0.1 × 10^-3 cpm
- inhibition at 0.01 µg/mL (ConA 1 ug/ml): 7%
- inhibition at 0.001 µg/mL [1]: 18%
- inhibition at 0.1 µg/mL [2]: 93%
- inhibition at 1 µg/mL (ConA 1 ug/ml, compound 1 ug/ml): 96%
- inhibition at 2.5 µg/mL [3]: 98%
- inhibition at 10 µg/mL [4]: 99%
- inhibition at 25 µg/mL [5]: 99%
- inhibition at 100 µg/mL [6]: 99%
- inhibition at 0.01 µg/mL (ConA 4 ug/ml): 13%
- inhibition at 0.001 µg/mL [7]: -5%
- inhibition at 0.1 µg/mL [8]: 99%
- inhibition at 1 µg/mL (ConA 4 ug/ml, compound 1 ug/ml): 97%
- inhibition at 2.5 µg/mL [9]: 99%
- inhibition at 10 µg/mL [10]: 99%
- inhibition at 25 µg/mL [11]: 99%
- inhibition at 100 µg/mL [12]: 100%

SMILES: CCCCCCCSC[C@H]1OC(C)(C)O[C@@H]2[C@H]3OC(C)(C)O[C@H]3O[C@@H]21 [IIIn, 1,2:3,5-Di-O-Isopropylidene-6-deoxy-6-thio-n-heptyl-β-D-glucofuranose]
- inhibition at 1 µg/mL (ConA 1 ug/ml, compound 1 ug/ml): 4%
- inhibition at 10 µg/mL [4]: 29%
- inhibition at 25 µg/mL [5]: 27%
- inhibition at 100 µg/mL [6]: 84%
- inhibition at 300 µg/mL [13]: 99%
- inhibition at 750 µg/mL [14]: 99%
- inhibition at 1 µg/mL (ConA 4 ug/ml, compound 1 ug/ml): -1%
- inhibition at 10 µg/mL [10]: 12%
- inhibition at 25 µg/mL [11]: 16%
- inhibition at 100 µg/mL [12]: 76%
- inhibition at 300 µg/mL [15]: 99%
- inhibition at 750 µg/mL [16]: 98%
- strong antiproliferative effect on ConA blastogenic response: greater than -50 % of control

SMILES: CC1(C)OC2OC3C(CSCCN4CCCC4)OC(C)(C)OC3C2O1 [IIIp, 1,2:3,5-Di-O-Isopropylidene-6-deoxy-6-thio-2'-(ethyl-N"-pyrrolidyl)-α-D-glucofuranose]
- Blastogenic response of normal spleen cells to Con-A (ConA 1 ug/ml, compound 1 ug/ml): 118,909 × 10^3 cpm
- % change from control, ConA blastogenic response [4]: -23%
- Blastogenic response of normal spleen cells to Con-A [4]: 55,282 ± 17,762 cpm
- Blastogenic response of normal spleen cells to Con-A [5]: 101,268 ± 23,586 cpm
- % change from control, ConA blastogenic response [6]: -11%
- Blastogenic response of normal spleen cells to Con-A [6]: 64,122 ± 7,847 cpm
- % change from control, ConA blastogenic response [13]: -63%
- Blastogenic response of normal spleen cells to Con-A [13]: 26,948 ± 13,540 cpm
- % change from control, ConA blastogenic response [14]: -94%
- Blastogenic response of normal spleen cells to Con-A [14]: 3,976 ± 1,922 cpm
- % change from control, ConA blastogenic response (ConA 4 ug/ml, compound 1 ug/ml): -17%
- Blastogenic response of normal spleen cells to Con-A (ConA 4 ug/ml, compound 1 ug/ml): 81,109 × 10^3 cpm
- % change from control, ConA blastogenic response [10]: -40%
- Blastogenic response of normal spleen cells to Con-A [10]: 58,381 ± 7,921 cpm
- % change from control, ConA blastogenic response [11]: -33%
- Blastogenic response of normal spleen cells to Con-A [11]: 65,424 ± 13,480 cpm
- % change from control, ConA blastogenic response [12]: -55%
- Blastogenic response of normal spleen cells to Con-A [12]: 43,864 ± 9,618 cpm
- % change from control, ConA blastogenic response [15]: -91%
- Blastogenic response of normal spleen cells to Con-A [15]: 8,310 ± 945 × 10^3 cpm
- % change from control, ConA blastogenic response [16]: -91%
- Blastogenic response of normal spleen cells to Con-A [16]: 8,402 ± 3,070 cpm
- inhibition at 10 µg/mL [4]: 23%
- inhibition at 100 µg/mL [6]: 11%
- inhibition at 300 µg/mL [13]: 63%
- inhibition at 750 µg/mL [14]: 94%
- inhibition at 1 µg/mL (ConA 4 ug/ml, compound 1 ug/ml): 17%
- inhibition at 10 µg/mL [10]: 40%
- inhibition at 25 µg/mL [11]: 33%
- inhibition at 100 µg/mL [12]: 55%
- inhibition at 300 µg/mL [15]: 91%
- inhibition at 750 µg/mL [16]: 91%
- strong antiproliferative effect on ConA blastogenic response: greater than -50 % of control
